In patent US11708348B2, “Protease inhibitors for treatment of coronavirus infections” (The Scripps Research Institute, priority 2021, dated 2023):
Where two headings read alike, the source gives them in different places.

Tested on: SARS-CoV-2 strain USA-WA1/2020
Assay: microbe, parasite or virus in culture
Assay type: cell-based
Details: Severe acute respiratory syndrome coronavirus 2, HeLa-ACE2, 24 h, read-out: EC50, uM (Hela)
[1] = HeLa-ACE2 cells, SARS-CoV-2 infection, 24 h, cells given as a bound
[2] = HeLa-ACE2 cells, SARS-CoV-2 infection, 24 h, class symbols

Compound	EC50 [2] [µM]	also measured
O=C(Nc1ccccc1F)C(=O)N1CCC[C@@H](C(=O)N[C@@H](C[C@@H]2CCNC2=O)C(=O)COc2c(F)c(F)cc(F)c2F)C1 [Compound 95, (R)-1-(2-((2-fluorophenyl)amino)-2-oxoacetyl)-N-((S)-3-oxo-1-((S)-2-oxopyrrolidin-3-yl)-4-(2,3,5,6-tetrafluorophenoxy)butan-2-yl)piperidine-3-carboxamide]	–	EC50 [1]: > 1 µM
CC(C)C[C@H](NC(=O)C(=O)Nc1ccc(Br)cc1F)C(=O)N[C@@H](C[C@@H]1CCNC1=O)C(=O)COc1c(F)c(F)cc(F)c1F [Compound 96, N1-(4-bromo-2-fluorophenyl)-N2-((S)-4-methyl-1-oxo-1-(((S)-3-oxo-1-((S)-2-oxopyrrolidin-3-yl)-4-(2,3,5,6-tetrafluorophenoxy)butan-2-yl)amino)pentan-2-yl)oxalamide]	–	EC50: 0.05 to 0.2 µM
CC(C)C[C@H](NC(=O)C(Nc1ccccc1F)C(F)(F)F)C(=O)N[C@@H](C[C@@H]1CCNC1=O)C(=O)COc1c(F)c(F)cc(F)c1F (stereo partly drawn) [Compound 97, (2S)-4-methyl-N-((S)-3-oxo-1-((S)-2-oxopyrrolidin-3-yl)-4-(2,3,5,6-tetrafluorophenoxy)butan-2-yl)-2-(3,3,3-trifluoro-2-((2-fluorophenyl)-amino)propanamido)-pentanamide]	0.2 to 0.5	–
CC(C)C[C@H](NC(=O)C(=O)NC1CC1)C(=O)N[C@@H](C[C@@H]1CCNC1=O)C(=O)COc1c(F)c(F)cc(F)c1F [Compound 98, N1-cyclopropyl-N2-((S)-4-methyl-1-oxo-1-(((S)-3-oxo-1-((S)-2-oxopyrrolidin-3-yl)-4-(2,3,5,6-tetrafluorophenoxy)butan-2-yl)amino)pentan-2-yl)oxalamide]	0.05 to 0.2	–
CC(C)C[C@H](NC(=O)C(=O)NC1(C)CC1)C(=O)N[C@@H](C[C@@H]1CCNC1=O)C(=O)COc1c(F)c(F)cc(F)c1F [Compound 99, N1-((S)-4-methyl-1-oxo-1-(((S)-3-oxo-1-((S)-2-oxopyrrolidin-3-yl)-4-(2,3,5,6-tetrafluorophenoxy)butan-2-yl)amino)pentan-2-yl)-N2-(1-methyl-cyclopropyl)oxalamide]	0.05 to 0.2	–
CC(C)C[C@H](NC(=O)C(=O)NC(C)(C)C)C(=O)N[C@@H](C[C@@H]1CCNC1=O)C(=O)COc1c(F)c(F)cc(F)c1F [Compound 100, N1-(tert-butyl)-N2-((S)-4-methyl-1-oxo-1-(((S)-3-oxo-1-((S)-2-oxopyrrolidin-3-yl)-4-(2,3,5,6-tetrafluorophenoxy)butan-2-yl)amino)pentan-2-yl)oxalamide]	0.05 to 0.2	–
CC(C)C[C@H](NC(=O)C(=O)NC1CCOCC1)C(=O)N[C@@H](C[C@@H]1CCNC1=O)C(=O)COc1c(F)c(F)cc(F)c1F [Compound 101, N1-((S)-4-methyl-1-oxo-1-(((S)-3-oxo-1-((S)-2-oxopyrrolidin-3-yl)-4-(2,3,5,6-tetrafluorophenoxy)butan-2-yl)amino)pentan-2-yl)-N2-(tetrahydro-2H-pyran-4-yl)oxalamide]	0.05 to 0.2	–
CC(C)C[C@H](NC(=O)C(=O)NC1CCCC1)C(=O)N[C@@H](C[C@@H]1CCNC1=O)C(=O)COc1c(F)c(F)cc(F)c1F [Compound 102, N1-cyclopentyl-N2-((S)-4-methyl-1-oxo-1-(((S)-3-oxo-1-((S)-2-oxopyrrolidin-3-yl)-4-(2,3,5,6-tetrafluorophenoxy)butan-2-yl)amino)pentan-2-yl)oxalamide]	0.05 to 0.2	–
CC(C)C[C@H](NC(=O)C(=O)N[C@H]1CCCOC1)C(=O)N[C@@H](C[C@@H]1CCNC1=O)C(=O)COc1c(F)c(F)cc(F)c1F [Compound 103, N1-((S)-4-methyl-1-oxo-1-(((S)-3-oxo-1-((S)-2-oxopyrrolidin-3-yl)-4-(2,3,5,6-tetrafluorophenoxy)butan-2-yl)amino)pentan-2-yl)-N2-((S)-tetrahydro-2H-pyran-3-yl)oxalamide]	0.05 to 0.2	–
CC(=O)N1CCN(C(=O)C(=O)N[C@@H](CC(C)C)C(=O)N[C@@H](C[C@@H]2CCNC2=O)C(=O)COc2c(F)c(F)cc(F)c2F)CC1 [Compound 104, (S)-2-(2-(4-acetylpiperazin-1-yl)-2-oxoacetamido)-4-methyl-N-((S)-3-oxo-1-((S)-2-oxopyrrolidin-3-yl)-4-(2,3,5,6-tetrafluorophenoxy)butan-2-yl)pentanamide]	–	EC50 [1]: > 1 µM
Cc1ccccc1NC(=O)C(=O)N(C)[C@@H](CC(C)C)C(=O)N[C@@H](C[C@@H]1CCNC1=O)C(=O)COc1c(F)c(F)cc(F)c1F [Compound 105, N1-methyl-N1-((S)-4-methyl-1-oxo-1-(((S)-3-oxo-1-((S)-2-oxopyrrolidin-3-yl)-4-(2,3,5,6-tetrafluorophenoxy)butan-2-yl)amino)pentan-2-yl)-N2-(o-tolyl)oxalamide]	–	EC50 [1]: > 1 µM
Cc1ccccc1NC(=O)C(=O)N[C@@H](Cc1ccccc1)C(=O)N[C@@H](C[C@@H]1CCNC1=O)C(=O)COc1c(F)c(F)cc(F)c1F [Compound 106, N1-((S)-1-oxo-1-(((S)-3-oxo-1-((S)-2-oxopyrrolidin-3-yl)-4-(2,3,5,6-tetrafluorophenoxy)butan-2-yl)amino)-3-phenylpropan-2-yl)-N2-(o-tolyl)oxalamide]	< 0.05	–
Cc1ccccc1N(C)C(=O)C(=O)N[C@@H](CC(C)C)C(=O)N[C@@H](C[C@@H]1CCNC1=O)C(=O)COc1c(F)c(F)cc(F)c1F [Compound 107, N1-methyl-N2-((S)-4-methyl-1-oxo-1-(((S)-3-oxo-1-((S)-2-oxopyrrolidin-3-yl)-4-(2,3,5,6-tetrafluorophenoxy)butan-2-yl)amino)pentan-2-yl)-N1-(o-tolyl)oxalamide]	0.2 to 0.5	–
O=C(Nc1ccccc1F)C(=O)N[C@@H](CCC1CCCCC1)C(=O)N[C@@H](C[C@@H]1CCNC1=O)C(=O)COc1c(F)c(F)cc(F)c1F [Compound 108, N1-((S)-4-cyclohexyl-1-oxo-1-(((S)-3-oxo-1-((S)-2-oxopyrrolidin-3-yl)-4-(2,3,5,6-tetrafluorophenoxy)butan-2-yl)amino)butan-2-yl)-N2-(2-fluorophenyl)oxalamide]	0.2 to 0.5	–
O=C(Nc1ccccc1F)C(=O)N[C@@H](CC1CC1)C(=O)N[C@@H](C[C@@H]1CCNC1=O)C(=O)COc1c(F)c(F)cc(F)c1F [Compound 109, N1-((S)-3-cyclopropyl-1-oxo-1-(((S)-3-oxo-1-((S)-2-oxopyrrolidin-3-yl)-4-(2,3,5,6-tetrafluorophenoxy)butan-2-yl)amino)propan-2-yl)-N2-(2-fluorophenyl)oxalamide]	< 0.05	–
O=C(N[C@@H](CC1CCCCC1)C(=O)N[C@@H](C[C@@H]1CCNC1=O)C(=O)COc1c(F)c(F)cc(F)c1F)c1cc(-c2ccccc2F)on1 [Compound 110, N-((S)-3-cyclohexyl-1-oxo-1-(((S)-3-oxo-l-((S)-2-oxopyrrolidin-3-yl)-4-(2,3,5,6-tetrafluorophenoxy)butan-2-yl)amino)propan-2-yl)-5-(2-fluorophenyl)isoxazole-3-carboxamide]	0.2 to 0.5	–
O=C(Nc1ccccc1Cc1ccccc1)C(=O)N[C@@H](CC1CCCCC1)C(=O)N[C@@H](C[C@@H]1CCNC1=O)C(=O)COc1c(F)c(F)cc(F)c1F [Compound 111, N1-(2-benzylphenyl)-N2-((S)-3-cyclohexyl-1-oxo-1-(((S)-3-oxo-1-((S)-2-oxopyrrolidin-3-yl)-4-(2,3,5,6-tetrafluorophenoxy)butan-2-yl)amino)propan-2-yl)oxalamide]	0.05 to 0.2	–
COc1ccccc1NC(=O)C(=O)N[C@@H](CC(C)C)C(=O)N[C@@H](C[C@@H]1CCNC1=O)C(=O)COc1c(F)c(F)cc(F)c1F [Compound 112, N1-(2-methoxyphenyl)-N2-((S)-4-methyl-1-oxo-1-(((S)-3-oxo-1-((S)-2-oxopyrrolidin-3-yl)-4-(2,3,5,6-tetrafluorophenoxy)butan-2-yl)amino)pentan-2-yl)oxalamide]	0.05 to 0.2	–
CC(C)C[C@H](NC(=O)C(=O)Nc1ccccc1OC(F)(F)F)C(=O)N[C@@H](C[C@@H]1CCNC1=O)C(=O)COc1c(F)c(F)cc(F)c1F [Compound 113, N1-((S)-4-methyl-1-oxo-1-(((S)-3-oxo-1-((S)-2-oxopyrrolidin-3-yl)-4-(2,3,5,6-tetrafluorophenoxy)butan-2-yl)amino)pentan-2-yl)-N2-(2-(trifluoromethoxy)-phenyl)oxalamide]	< 0.05	–
Cc1cc(C(=O)N[C@@H](CC(C)C)C(=O)N[C@@H](C[C@@H]2CCNC2=O)C(=O)COc2c(F)c(F)cc(F)c2F)no1 [Compound 114, 5-methyl-N-((S)-4-methyl-1-oxo-1-(((S)-3-oxo-1-((S)-2-oxopyrrolidin-3-yl)-4-(2,3,5,6-tetrafluorophenoxy)butan-2-yl)amino)pentan-2-yl)isoxazole-3-carboxamide]	0.5 to 1	–
Cc1cc(C(=O)N[C@H](C(=O)N[C@@H](CC(C)C)C(=O)N[C@@H](C[C@@H]2CCNC2=O)C(=O)COc2c(F)c(F)cc(F)c2F)C(C)C)no1 [Compound 115, 5-methyl-N-((S)-3-methyl-1-(((S)-4-methyl-1-oxo-1-(((S)-3-oxo-1-((S)-2-oxopyrrolidin-3-yl)-4-(2,3,5,6-tetrafluorophenoxy)butan-2-yl)amino)pentan-2-yl)amino)-1-oxobutan-2-yl)isoxazole-3-carboxamide]	0.2 to 0.5	–
Cc1ccccc1NC(=O)C(=O)N[C@@H](CC1CC1)C(=O)N[C@@H](C[C@@H]1CCNC1=O)C(=O)COc1c(F)c(F)cc(F)c1F [Compound 116, N1-((S)-3-cyclopropyl-1-oxo-1-(((S)-3-oxo-1-((S)-2-oxopyrrolidin-3-yl)-4-(2,3,5,6-tetrafluorophenoxy)butan-2-yl)amino)propan-2-yl)-N2-(o-tolyl)oxalamide]	< 0.05	–
CC(C)(C)c1ccccc1NC(=O)C(=O)N[C@@H](CC1CCCCC1)C(=O)N[C@@H](C[C@@H]1CCNC1=O)C(=O)COc1c(F)c(F)cc(F)c1F [Compound 117, Nl-(2-(tert-butyl)phenyl)-N2-((S)-3-cyclohexyl-1-oxo-1-(((S)-3-oxo-1-((S)-2-oxopyrrolidin-3-yl)-4-(2,3,5,6-tetrafluorophenoxy)butan-2-yl)amino)propan-2-yl)oxalamide]	< 0.05	–
